{"source": "patent US11572369B2", "about": "“Bicyclic pyridine compositions and methods of using the same for cancer therapy” (UNIVERSITY OF SOUTH CAROLINA, priority 2019, dated 2023)", "key": {"Mouse PK, intravenous": {"assay": "Mouse PK, intravenous", "assay_type": "in vivo", "conditions": "female FVB mice, i.v. 0.5 mg/kg, mixture", "procedure": "Pharmacokinetics (PK) Assay. To measure mouse pharmacokinetics (PK), thienopyridine derivatives were dissolved in 5% dextrose and administered to female FVB mice at different dosing conditions; blood samples were collected at different time points and compound concentrations in the serum were measured by LC/MS/MS."}, "[1]": {"system": "luciferase-expressing MV4-11 cells", "assay": "MV4-11 leukemia in NSG mice, bioluminescence imaging", "assay_type": "in vivo, mouse", "conditions": "for inhibition of leukemia growth (BLI): 23 days, NSG mice", "procedure": "Assay protocol. For in vivo studies, 7-week-old female NSG mice (Jackson Laboratories) were injected with 2×10^6 luciferase-expressing MV4-11 cells in the tail vein. Following engraftment, BLI was performed on the inoculated mice 5 days after cell inoculation. After BLI, the mice were sorted into two matching cohorts of 10 mice and one cohort of 5 mice. BLI detection was done with IVIS Lumina II Series Hardware for In-Vivo Imaging with optional XFOV lens and Living Image software. The IVIS setting for sorting mice into cohorts was set for high sensitivity: Bin 8, F1.2, 180 sec. Subsequent exposures (week 1-5) were set for increased resolution: Bin 4, F1.2, 120 sec.\nTreatment was initiated on day 6 following cell-inoculation and continued for 23 days. Ten mice received Vehicle only (5% carboxylmethyl cellulose) by gavage (200 μl). […] This diet matches the diet used for normal mouse feeding, with the exception of added dye and 15u. The control MV4-11 xenografted mice (Vehicle) developed a vigorous tumor population as detected by BLI (FIG. 10B-10C). […] Survival of the mice post treatment was monitored."}, "[2]": {"assay": "MTD study, oral gavage b.i.d. 14 days, CD-1 mice", "assay_type": "in vivo, mouse", "conditions": "for detrimental effects: 14 days", "procedure": "The highest dose (120 mg/kg b.i.d.) caused about 10% body weight loss in female mice after 7-10 days of treatment but no further deterioration was observed through the rest of the treatment period (FIG. 12A)."}}, "data": [{"smiles": "CN(C)C(=O)c1ccc(N2CCCN(c3ccnc4sc(C(N)=O)c(N)c34)CC2)cc1", "note": "[15u, 3-amino-4-(4-(4-(dimethylcarbamoyl)phenyl)-1,4-diazepan-1-yl)thieno[2,3-b]pyridine-2-carboxamide]", "values": [{"measurement": "Elimination rate", "setting": "Mouse PK, intravenous", "value": 4.03, "unit": "h⁻¹"}, {"measurement": "AUC", "setting": "Mouse PK, intravenous; mouse, serum, iv", "value": 92.1, "unit": "ng·h/mL"}, {"measurement": "C0", "setting": "Mouse PK, intravenous; mouse, serum, iv", "value": 328, "unit": "ng/mL"}, {"measurement": "Vd", "setting": "Mouse PK, intravenous; mouse, serum, iv", "value": 1.52, "unit": "L/kg"}, {"measurement": "half-life", "setting": "Mouse PK, intravenous; mouse, serum, iv", "value": 10.2, "unit": "min"}, {"measurement": "inhibition of leukemia growth (BLI)", "setting": "[1]; 30 mg/kg twice daily by gavage", "value": 94, "unit": "%"}, {"measurement": "inhibition of leukemia growth (BLI)", "setting": "[1]; medicated chow containing 15u at 1 g/kg", "value": 99.7, "unit": "%"}, {"measurement": "survival post treatment", "setting": "[1]; oral gavage, FIG. 10D", "value": "superior survival rates"}, {"measurement": "body weight loss", "setting": "[2]; female CD-1 mice, 120 mg/kg b.i.d., after 7-10 days of treatment", "value": "about 10%"}, {"measurement": "detrimental effects", "setting": "[2]; female CD-1 mice, doses up to 60 mg/kg b.i.d.", "value": "No detrimental effects"}, {"measurement": "detrimental effects", "setting": "[2]; male CD-1 mice, 60 and 120 mg/kg b.i.d.", "value": "No detrimental effects"}]}]}
